25 compounds from patent publication US8134015B2, “Compound inhibiting in vivo phosphorous transport and medicine containing the same” (Kyowa Hakko Kirin Co., Ltd., priority 2003, dated 2012) can be followed below.

pIC50: −log10 of the molar value.

The assay deals with T1, rat NaPi-2b (Rattus norvegicus, UniProt Q9JJ09).
T1 construct: expressed in transfected cells; host or cells: Xenopus oocytes injected with cRNA
T1 sequence (Q9JJ09 1-695): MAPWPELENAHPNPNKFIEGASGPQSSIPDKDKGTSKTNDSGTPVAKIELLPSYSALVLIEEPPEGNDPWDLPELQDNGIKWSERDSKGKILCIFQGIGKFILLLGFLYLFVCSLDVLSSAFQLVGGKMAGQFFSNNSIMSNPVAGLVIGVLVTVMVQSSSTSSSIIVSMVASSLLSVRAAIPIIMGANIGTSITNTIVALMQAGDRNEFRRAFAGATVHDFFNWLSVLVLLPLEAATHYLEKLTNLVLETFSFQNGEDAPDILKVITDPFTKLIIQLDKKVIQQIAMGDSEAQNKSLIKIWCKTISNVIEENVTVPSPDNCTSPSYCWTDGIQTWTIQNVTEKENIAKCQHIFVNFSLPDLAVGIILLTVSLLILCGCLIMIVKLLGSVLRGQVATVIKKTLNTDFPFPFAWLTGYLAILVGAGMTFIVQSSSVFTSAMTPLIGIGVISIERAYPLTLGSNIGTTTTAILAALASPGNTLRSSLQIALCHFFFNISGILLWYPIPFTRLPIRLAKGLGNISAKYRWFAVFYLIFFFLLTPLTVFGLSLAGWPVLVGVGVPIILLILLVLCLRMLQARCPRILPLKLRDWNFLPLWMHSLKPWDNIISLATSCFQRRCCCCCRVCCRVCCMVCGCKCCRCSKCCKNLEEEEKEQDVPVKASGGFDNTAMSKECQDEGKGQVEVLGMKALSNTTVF
In words: Sodium-dependent phosphate uptake of Xenopus oocytes which expressed NaPi-2b (32P). The format is cell-based. The following applies: for pIC50: Xenopus oocytes expressing rat NaPi-2b, 32P radioactive phosphorus, read-out: IC50 (phosphate uptake inhibitory activity); for inhibition at 100 µM: phosphate uptake, oocytes expressing rat NaPi-2b, determined from inhibition curve. The method in brief: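 Read-out is 32P phosphate uptake into Xenopus oocytes expressing rat intestinal NaPi-2b (cRNA injection, 2-day culture). Inhibition at 300 μM and 100 μM was derived from a single inhibition curve and given as percent.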

Turning to `Cc1ccc(/C=N/NC(=O)c2cc(OCCCCF)ccc2NC(=O)c2cccc(CSCCO)c2)cc1` [Compound 1052, N-[4-(4-Fluoro-butoxy)-2-(4-methyl-benzylidene-hydrazinocarbonyl)-phenyl]-3-(2-hydroxy-ethylsulfanylmethyl)-benzamide], the pIC50 (usually −log10 of the IC50, conventionally taken in molar units) is 5.88.

Regarding `Cc1ccc(/C=N/NC(=O)c2cc(OCCCCF)ccc2NC(=O)c2cccc(CSCCO)c2)cc1C` [Compound 1053, N-[2-(3,4-Dimethyl-benzylidene-hydrazinocarbonyl)-4-(4-fluoro-butoxy)-phenyl]-3-(2-hydroxy-ethylsulfanylmethyl)-benzamide], the pIC50 is above 6.00.

For the compound `O=C(Nc1ccc(OCCCCF)cc1C(=O)N/N=C/c1ccc(Cl)c(C(F)(F)F)c1)c1cccc(CSCCO)c1` [Compound 1054, N-[2-(4-Chloro-3-trifluoromethyl-benzylidene-hydrazinocarbonyl)-4-(4-fluoro-butoxy)-phenyl]-3-(2-hydroxy-ethylsulfanylmethyl)-benzamide], the pIC50 was above 6.00.

Take `COc1ccc(/C=N/NC(=O)c2cc(OCCCCF)ccc2NC(=O)c2cccc(CSCCO)c2)cc1` [Compound 1055, N-[4-(4-Fluoro-butoxy)-2-(4-methoxy-benzylidene-hydrazinocarbonyl)-phenyl]-3-(2-hydroxy-ethylsulfanylmethyl)-benzamide]: the pIC50 is 5.71.

Regarding `CCN(CC)CCN(CCN(CC)CC)Cc1cccc(C(=O)Nc2sc3c(c2C(=O)N/N=C/c2ccc(C)cc2)CCCC3)c1` [Compound 1056, 3-{[Bis-(2-diethylamino-ethyl)-amino]-methyl}-N-[3-(4-methyl-benzylidene-hydrazinocarbonyl)-4,5,6,7-tetrahydro-benzo[b]thiophen-2-yl]-benzamide], the negative-log IC50 (pIC50) is 5.73.

As for `CCN(CC)CCN(C)Cc1cccc(C(=O)Nc2ccc(OCCCCF)cc2C(=O)N/N=C/c2cccc(F)c2)c1` [Compound 1057, 3-{[(2-Diethylamino-ethyl)-methyl-amino]-methyl}-N-[2-(3-fluoro-benzylidene-hydrazinocarbonyl)-4-(4-fluoro-butoxy)-phenyl]-benzamide], the pIC50 is 5.90.

With `CCN(CC)CCN(C)Cc1cccc(C(=O)Nc2ccc(OCCCCF)cc2C(=O)N/N=C/c2ccc(C)cc2)c1` [Compound 1058, 3-{[(2-Diethylamino-ethyl)-methyl-amino]-methyl}-N-[4-(4-fluoro-butoxy)-2-(4-methyl-benzylidene-hydrazinocarbonyl)-phenyl]-benzamide], the negative logarithm of the IC50 (pIC50) is 5.97.

With `CCN(CC)CCN(C)Cc1cccc(C(=O)Nc2ccc(OCCCCF)cc2C(=O)N/N=C/c2ccc(C)c(C)c2)c1` [Compound 1059, 3-{[(2-Diethylamino-ethyl)-methyl-amino]-methyl}-N-[2-(3,4-dimethyl-benzylidene-hydrazinocarbonyl)-4-(4-fluoro-butoxy)-phenyl]-benzamide], the pIC50 was 6.37.

With `CCN(CC)CCN(C)Cc1cccc(C(=O)Nc2ccc(OCCCCF)cc2C(=O)N/N=C/c2ccc(Cl)c(C(F)(F)F)c2)c1` [Compound 1060, N-[2-(4-Chloro-3-trifluoromethyl-benzylidene-hydrazinocarbonyl)-4-(4-fluoro-butoxy)-phenyl]-3-{[(2-diethylamino-ethyl)-methyl-amino]-methyl}-benzamide], the pIC50 was 6.36.

As to `CCN(CC)CCN(C)Cc1cccc(C(=O)Nc2ccc(OCCCCF)cc2C(=O)N/N=C/c2ccc(OC)cc2)c1` [Compound 1061, 3-{[(2-Diethylamino-ethyl)-methyl-amino]-methyl}-N-[4-(4-fluoro-butoxy)-2-(4-methoxy-benzylidene-hydrazinocarbonyl)-phenyl]-benzamide], the pIC50 is 5.70.

Turning to `O=C(Nc1ccc(N2CCC(O)CC2)cc1C(=O)N/N=C/c1ccc(Cl)c(C(F)(F)F)c1)c1cccc(CSCCO)c1` [Compound 1062, N-[2-(4-Chloro-3-trifluoromethyl-benzylidene-hydrazinocarbonyl)-4-(4-hydroxy-piperidin-1-yl)-phenyl]-3-(2-hydroxy-ethylsulfanylmethyl)-benzamide], the pIC50 is 5.17.

With `O=C(Nc1ccc(N2CCC(CO)CC2)cc1C(=O)N/N=C/c1ccc(Cl)c(C(F)(F)F)c1)c1cccc(CSCCO)c1` [Compound 1063, N-[2-(4-Chloro-3-trifluoromethyl-benzylidene-hydrazinocarbonyl)-4-(4-hydroxymethyl-piperidin-1-yl)-phenyl]-3-(2-hydroxy-ethylsulfanylmethyl)-benzamide], the inhibition (as a rule, the share of the control response that was lost under treatment) at 100 µM amounted to 63.9%.

Consider `Cc1ccc(/C=N/NC(=O)c2cc(N3CCOCC3)ccc2NC(=O)c2cccc(CSCCO)c2)cc1C` [Compound 1064, N-[2-(3,4-Dimethyl-benzylidene-hydrazinocarbonyl)-4-morpholin-4-yl-phenyl]-3-(2-hydroxy-ethylsulfanylmethyl)-benzamide], for which the pIC50 is above 6.00.

Turning to `O=C(Nc1ccc(N2CCOCC2)cc1C(=O)N/N=C/c1ccc(Cl)c(C(F)(F)F)c1)c1cccc(CSCCO)c1` [Compound 1065, N-[2-(4-Chloro-3-trifluoromethyl-benzylidene-hydrazinocarbonyl)-4-morpholin-4-yl-phenyl]-3-(2-hydroxy-ethylsulfanylmethyl)-benzamide], the pIC50 was 5.92.

Take `COc1ccc(/C=N/NC(=O)c2cc(N3CCOCC3)ccc2NC(=O)c2cccc(CSCCO)c2)cc1` [Compound 1066, 3-(2-Hydroxy-ethylsulfanylmethyl)-N-[2-(4-methoxy-benzylidene-hydrazinocarbonyl)-4-morpholin-4-yl-phenyl]-benzamide]: the pIC50 is 5.57.

Consider `O=C(Nc1ccc(N2CCC(N3CCCCC3)CC2)cc1C(=O)N/N=C/c1ccc(Cl)c(C(F)(F)F)c1)c1cccc(CSCCO)c1` [Compound 1067], for which the pIC50 is 5.55.

`COc1ccc(/C=N/NC(=O)c2cc(N3CCC(N4CCCCC4)CC3)ccc2NC(=O)c2cccc(CSCCO)c2)cc1` [Compound 1068] registered an inhibition at 100 µM of 74.4%.

As to `Cc1ccc(/C=N/NC(=O)c2cc(N3CCC(C)CC3)ccc2NC(=O)c2cccc(CSCCO)c2)cc1C` [Compound 1069, N-[2-(3,4-Dimethyl-benzylidene-hydrazinocarbonyl)-4-(4-methyl-piperidin-1-yl)-phenyl]-3-(2-hydroxy-ethylsulfanylmethyl)-benzamide], the negative logarithm of the IC50 (pIC50) was above 6.00.

For the compound `CC1CCN(c2ccc(NC(=O)c3cccc(CSCCO)c3)c(C(=O)N/N=C/c3ccc(Cl)c(C(F)(F)F)c3)c2)CC1` [Compound 1070, N-[2-(4-Chloro-3-trifluoromethyl-benzylidene-hydrazinocarbonyl)-4-(4-methyl-piperidin-1-yl)-phenyl]-3-(2-hydroxy-ethylsulfanylmethyl)-benzamide], the negative-log IC50 (pIC50) is above 6.00.

As for `COc1ccc(/C=N/NC(=O)c2cc(N3CCC(C)CC3)ccc2NC(=O)c2cccc(CSCCO)c2)cc1` [Compound 1071, 3-(2-Hydroxy-ethylsulfanylmethyl)-N-[2-(4-methoxy-benzylidene-hydrazinocarbonyl)-4-(4-methyl-piperidin-1-yl)-phenyl]-benzamide], the pIC50 is above 6.00.

Turning to `CN1CCN(c2ccc(NC(=O)c3cccc(CSCCO)c3)c(C(=O)N/N=C/c3ccc(Cl)c(C(F)(F)F)c3)c2)CC1` [Compound 1072, N-[2-(4-Chloro-3-trifluoromethyl-benzylidene-hydrazinocarbonyl)-4-(4-methyl-piperazin-1-yl)-phenyl]-3-(2-hydroxy-ethylsulfanylmethyl)-benzamide], the pIC50 was 5.41.

Regarding `COc1ccc(/C=N/NC(=O)c2cc(N3CCN(C)CC3)ccc2NC(=O)c2cccc(CSCCO)c2)cc1` [Compound 1073, 3-(2-Hydroxy-ethylsulfanylmethyl)-N-[2-(4-methoxy-benzylidene-hydrazinocarbonyl)-4-(4-methyl-piperazin-1-yl)-phenyl]-benzamide], the pIC50 is 4.69.

`CCN(CC)CCN(C)Cc1cccc(C(=O)Nc2ccc(N3CCOCC3)cc2C(=O)N/N=C/c2ccc(C)c(C)c2)c1` [Compound 1074, 3-{[(2-Diethylamino-ethyl)-methyl-amino]-methyl}-N-[2-(3,4-dimethyl-benzylidene-hydrazinocarbonyl)-4-morpholin-4-yl-phenyl]-benzamide]: the pIC50 is 5.81.

With `CCN(CC)CCN(C)Cc1cccc(C(=O)Nc2ccc(N3CCOCC3)cc2C(=O)N/N=C/c2ccc(Cl)c(C(F)(F)F)c2)c1` [Compound 1075, N-[2-(4-Chloro-3-trifluoromethyl-benzylidene-hydrazinocarbonyl)-4-morpholin-4-yl-phenyl]-3-{[(2-diethylamino-ethyl)-methyl-amino]-methyl}-benzamide], the pIC50 was 5.87.

As for `CCN(CC)CCN(C)Cc1cccc(C(=O)Nc2ccc(N3CCOCC3)cc2C(=O)N/N=C/c2ccc(OC)cc2)c1` [Compound 1076, 3-{[(2-Diethylamino-ethyl)-methyl-amino]-methyl}-N-[2-(4-methoxy-benzylidene-hydrazinocarbonyl)-4-morpholin-4-yl-phenyl]-benzamide], the pIC50 was 5.59.
